Assay results reported in patent US20050009730A1, “Treatment of cns disorders using cns target modulators” (priority 2001, published 2005).
Where two headings read alike, the source gives them in different places. Marks after values point to notes of the source that are not given here.

Legend:
Male Wistar rats = assay: Sleep-wakefulness, locomotor activity and body temperature monitoring (SCORE-2000), treatment at CT-18
Histamine, H2 = Histamine, H2 (Homo sapiens, UniProt P25021); assay: Receptor selectivity binding assay comparison; conditions: 1.0E−6
[1] = target: T1, Muscarinic, M2 (Human Recombinant) (Homo sapiens, UniProt P08172); assay: Receptor selectivity binding assay comparison; conditions: 1.0E−6
T1 sequence (P08172 1-466): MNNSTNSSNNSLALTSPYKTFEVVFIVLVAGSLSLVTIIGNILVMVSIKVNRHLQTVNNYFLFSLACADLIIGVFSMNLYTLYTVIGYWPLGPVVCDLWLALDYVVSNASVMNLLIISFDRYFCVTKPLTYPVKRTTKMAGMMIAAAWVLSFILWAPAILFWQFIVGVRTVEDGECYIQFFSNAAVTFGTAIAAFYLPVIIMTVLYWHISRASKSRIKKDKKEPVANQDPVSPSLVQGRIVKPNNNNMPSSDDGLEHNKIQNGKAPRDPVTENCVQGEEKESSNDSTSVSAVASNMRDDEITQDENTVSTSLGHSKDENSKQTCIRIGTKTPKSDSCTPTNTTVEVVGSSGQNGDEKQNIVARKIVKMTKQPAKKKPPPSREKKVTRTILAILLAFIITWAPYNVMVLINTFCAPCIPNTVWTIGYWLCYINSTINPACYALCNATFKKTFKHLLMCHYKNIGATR

HERG = HERG (Homo sapiens, UniProt Q12809)
Histamine, H1 = Histamine, H1 (Homo sapiens, UniProt P35367); assay: H1 binding assay by displacement of known standards
Protocol: (§1) The following binding assays were performed on the Series 11 compounds described above by displacement of known standards from the H1, M1, M2, and M3 receptors, wherein H1 is a histamine receptor, and M1, M2, and M3 are muscarinic receptors.
The binding studies against the histamine receptor, H1, indicate binding affinity, and therefore the results of the binding assays are an indication of the activity of the compound. […]
The following binding assays were performed on additional compounds described above by displacement of known standards from the H1, M1, M2, and M3 receptors, wherein H1 is a histamine receptor, and M1, M2, and M3 are muscarinic receptors.
The binding assays for H1 was the same as described in Example 10 and the M1, M2, and M3 binding assays are the same as those described in Example 10 for human recombinant expressed cells.

M1 muscarinic receptor = target: T2, M1 muscarinic receptor (Homo sapiens, UniProt P11229); assay: M1 binding assay by displacement of known standards (Example 11)
T2 sequence (P11229 1-460): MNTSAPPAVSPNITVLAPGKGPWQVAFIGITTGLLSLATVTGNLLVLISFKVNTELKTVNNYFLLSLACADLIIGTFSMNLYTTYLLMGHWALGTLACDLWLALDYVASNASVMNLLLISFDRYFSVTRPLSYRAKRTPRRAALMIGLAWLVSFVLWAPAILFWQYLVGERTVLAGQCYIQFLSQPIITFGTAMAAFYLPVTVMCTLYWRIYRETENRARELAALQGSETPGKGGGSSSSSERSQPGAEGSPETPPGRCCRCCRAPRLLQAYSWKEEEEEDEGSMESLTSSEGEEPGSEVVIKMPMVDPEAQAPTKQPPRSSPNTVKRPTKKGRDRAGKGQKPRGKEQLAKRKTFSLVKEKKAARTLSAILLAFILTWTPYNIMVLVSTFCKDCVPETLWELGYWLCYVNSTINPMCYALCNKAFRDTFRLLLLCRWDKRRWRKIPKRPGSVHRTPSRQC
Protocol: as §1
(§2) In addition, the binding studies against the muscarinic receptors indicate the extent to which the compounds bind the muscarinic receptors, responsible for anti-cholinergic activity of the compound. Binding to muscarinic receptors results in several undesired side effects of many known antihistamines, e.g., dry-mouth. A decrease in the binding of the compounds to the M1-M3 receptors, relative the binding of the compound to the H1 receptor, is an indication of the greater specificity of the compound for the histamine receptor over the muscarinic receptor.

M2 muscarinic receptor = target: T3, M2 muscarinic receptor (Homo sapiens, UniProt P08172); assay: M2 binding assay by displacement of known standards (Example 11)
T3 sequence (P08172 1-466): T1 sequence (P08172 1-466)
Protocol: as §1, §2

M3 muscarinic receptor = M3 muscarinic receptor (Homo sapiens, UniProt P20309); assay: M3 binding assay by displacement of known standards (Example 11)
Protocol: as §1, §2

muscarinic receptors = assay: Muscarinic receptor binding, M1, M2 and M3 taken together in the conclusions
Protocol: as §1, §2

[2] = in human blood; cited from earlier work
[3] = read-out: Receptor Binding Data (Ki nM) H1
[4] = 10 mg/kg or 30 mg/kg, intraperitoneal
[5] = 30 mg/kg and 10 mg/kg, intraperitoneal, CT-18

Chain of Histamine, H1 (P35367 whole entry): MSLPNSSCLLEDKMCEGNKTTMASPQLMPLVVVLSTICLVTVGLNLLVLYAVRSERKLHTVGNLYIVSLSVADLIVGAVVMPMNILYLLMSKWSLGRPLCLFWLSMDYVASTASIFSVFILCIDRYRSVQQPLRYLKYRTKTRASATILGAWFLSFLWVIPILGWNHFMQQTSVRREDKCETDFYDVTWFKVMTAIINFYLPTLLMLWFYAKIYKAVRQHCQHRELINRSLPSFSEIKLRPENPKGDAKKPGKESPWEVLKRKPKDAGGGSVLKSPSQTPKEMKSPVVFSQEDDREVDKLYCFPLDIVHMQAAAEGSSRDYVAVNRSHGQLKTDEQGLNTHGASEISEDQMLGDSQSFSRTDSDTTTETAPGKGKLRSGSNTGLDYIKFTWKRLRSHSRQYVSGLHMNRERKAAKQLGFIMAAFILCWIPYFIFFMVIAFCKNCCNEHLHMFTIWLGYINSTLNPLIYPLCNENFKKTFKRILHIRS
Chain of M3 muscarinic receptor (P20309 whole entry): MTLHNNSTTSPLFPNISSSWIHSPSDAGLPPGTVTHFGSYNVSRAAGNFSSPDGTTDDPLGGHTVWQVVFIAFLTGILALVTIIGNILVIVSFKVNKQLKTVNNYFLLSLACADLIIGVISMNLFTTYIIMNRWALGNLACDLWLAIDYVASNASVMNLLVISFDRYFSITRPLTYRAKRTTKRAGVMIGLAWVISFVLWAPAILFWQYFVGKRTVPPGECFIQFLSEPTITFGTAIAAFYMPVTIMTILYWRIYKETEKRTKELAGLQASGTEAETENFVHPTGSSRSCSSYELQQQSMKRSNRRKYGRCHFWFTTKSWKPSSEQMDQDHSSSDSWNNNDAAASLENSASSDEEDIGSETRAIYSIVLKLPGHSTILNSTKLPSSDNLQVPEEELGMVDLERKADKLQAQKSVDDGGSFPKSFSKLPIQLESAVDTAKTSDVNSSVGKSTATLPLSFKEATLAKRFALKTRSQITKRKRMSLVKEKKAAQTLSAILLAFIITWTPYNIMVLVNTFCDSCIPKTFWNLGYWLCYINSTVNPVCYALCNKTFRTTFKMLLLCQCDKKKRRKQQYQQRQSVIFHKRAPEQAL
Chain of HERG (Q12809 whole entry): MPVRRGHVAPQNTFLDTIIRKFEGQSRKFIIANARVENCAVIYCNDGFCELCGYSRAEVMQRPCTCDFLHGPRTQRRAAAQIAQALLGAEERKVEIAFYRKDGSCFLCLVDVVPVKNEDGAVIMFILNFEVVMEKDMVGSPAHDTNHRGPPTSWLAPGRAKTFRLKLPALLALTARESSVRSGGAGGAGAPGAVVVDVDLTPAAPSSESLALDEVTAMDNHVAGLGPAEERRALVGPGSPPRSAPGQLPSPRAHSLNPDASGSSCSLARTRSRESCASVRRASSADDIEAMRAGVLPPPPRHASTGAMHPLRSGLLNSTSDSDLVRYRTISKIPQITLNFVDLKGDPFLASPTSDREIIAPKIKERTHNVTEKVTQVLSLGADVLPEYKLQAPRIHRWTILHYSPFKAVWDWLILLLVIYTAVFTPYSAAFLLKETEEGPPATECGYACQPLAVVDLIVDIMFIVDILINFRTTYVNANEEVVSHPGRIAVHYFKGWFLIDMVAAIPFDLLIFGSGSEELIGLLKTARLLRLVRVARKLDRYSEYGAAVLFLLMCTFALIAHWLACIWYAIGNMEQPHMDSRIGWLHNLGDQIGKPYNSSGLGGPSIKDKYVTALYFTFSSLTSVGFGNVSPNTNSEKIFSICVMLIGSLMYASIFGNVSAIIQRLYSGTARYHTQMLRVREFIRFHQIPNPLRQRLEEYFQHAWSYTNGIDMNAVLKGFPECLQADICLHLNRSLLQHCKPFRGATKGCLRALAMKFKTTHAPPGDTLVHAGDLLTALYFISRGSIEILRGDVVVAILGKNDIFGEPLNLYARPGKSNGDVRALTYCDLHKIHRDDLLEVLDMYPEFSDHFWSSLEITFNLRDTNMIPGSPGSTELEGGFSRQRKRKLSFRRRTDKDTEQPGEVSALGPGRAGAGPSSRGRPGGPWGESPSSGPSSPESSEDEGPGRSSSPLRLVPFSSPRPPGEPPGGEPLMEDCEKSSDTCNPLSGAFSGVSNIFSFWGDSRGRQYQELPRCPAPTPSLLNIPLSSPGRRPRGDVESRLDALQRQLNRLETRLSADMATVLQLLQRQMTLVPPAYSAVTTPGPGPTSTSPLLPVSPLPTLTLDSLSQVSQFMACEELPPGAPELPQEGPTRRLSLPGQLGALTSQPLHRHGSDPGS
Chain of Histamine, H2 (P25021 whole entry): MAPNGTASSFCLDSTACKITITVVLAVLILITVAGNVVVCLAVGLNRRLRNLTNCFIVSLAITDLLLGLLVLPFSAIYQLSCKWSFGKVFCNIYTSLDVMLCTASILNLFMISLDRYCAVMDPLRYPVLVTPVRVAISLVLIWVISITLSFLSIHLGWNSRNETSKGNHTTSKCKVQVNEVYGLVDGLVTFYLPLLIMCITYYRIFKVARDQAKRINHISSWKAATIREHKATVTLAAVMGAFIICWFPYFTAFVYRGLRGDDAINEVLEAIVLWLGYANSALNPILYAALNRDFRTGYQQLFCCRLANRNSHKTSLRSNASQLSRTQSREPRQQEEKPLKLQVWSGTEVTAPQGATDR

| Structure (SMILES) | Ki (Histamine, H1; [3]) [nM] | Average Bout-Length (Male Wistar rats; 30 mg/kg PO, at CT-18) [min] | Duration (Male Wistar rats; 30 mg/kg PO, at CT-18) [h] | Maximum Bout Length (Male Wistar rats; 30 mg/kg PO, at CT-18) [min] | NREM Accum. (Male Wistar rats; 30 mg/kg PO, at CT-18) [min] | NREM Peak (Male Wistar rats; 30 mg/kg PO, at CT-18) [%/hr] | Onset (Male Wistar rats; 30 mg/kg PO, at CT-18) [min] | IC50 (Histamine, H1) [nM] | Ki (Histamine, H1; read-out: H1 Ki) [nM] | other results |
| --- | --- | --- | --- | --- | --- | --- | --- | --- | --- | --- |
| Cc1ccc(-c2nc3ccc(C)cn3c2CC(=O)N(C)C)cc1 [Ambien, Zolpidem, reference compound] |  |  |  |  |  |  |  |  |  | Average Bout-Length (Male Wistar rats; 30 mg/kg IP, at CT-18): 5.8 min; Duration (Male Wistar rats; 30 mg/kg IP, at CT-18): 3 to 4 h; Maximum Bout Length (Male Wistar rats; 30 mg/kg IP, at CT-18): 13.1 min; Motor Inhibition (Male Wistar rats; 30 mg/kg IP, at CT-18): YES; NREM Accum. (Male Wistar rats; 30 mg/kg IP, at CT-18): 58.7 min; NREM Peak (Male Wistar rats; 30 mg/kg IP, at CT-18): 58.2 %/hr; Onset (Male Wistar rats; 30 mg/kg IP, at CT-18): 5 min; REM Inhibition (Male Wistar rats; 30 mg/kg IP, at CT-18): YES; Rebound Insomnia (Male Wistar rats; 30 mg/kg IP, at CT-18): YES |
| CN(C)CCC=C1c2ccccc2COc2ccccc21 [Doxepin, reference compound] |  |  |  |  |  |  |  |  |  | Percent Inhibition, Histamine, H2 (Histamine, H2): 74.7%; Percent Inhibition, Muscarinic, M2 (Human Recombinant) [1]: […]; Percent Inhibition, HERG (HERG): 23%** |
| Cl.O=C(O)CCN1CCC(OC(c2ccccc2)c2ccccc2)CC1 [Series 6a, 3-[4-(diphenylmethoxy)piperidin-1-yl]propanoic acid hydrochloride] | 56.1 | 7.0 | 5 | 12.8 | 26.5 | 56.4 | 65 |  |  |  |
| O=C(O)CN1CCC(=C2c3ccccc3COc3ccccc32)CC1 [Series 7a] | 55.1 | 7.3 | 5 to 6 | 16.9 | 29.5 | 56.9 | 130 |  |  |  |
| Cl.O=C(O)CCN1CCC(=C(c2ccccc2)c2ccccc2)CC1 [Series 11a] |  | 11.2 | 6 | 18.7 | 41.2 | 67.3 | 85 | 308 | 119 | Rebound Insomnia (Male Wistar rats; 30 mg/kg PO, at CT-18): Minor |
| CC(C)OC(=O)CCN1CCC(=C(c2ccccc2)c2ccccc2)CC1 [Series 11d, Isopropyl 3-[4-(diphenylmethylidene)piperidin-1-yl]propanoate] |  | 11.0 | 6 | 20.1 | 55.5 | 58.5 | 135 | 378 | 147 |  |
| CC(C)COC(=O)CCN1CCC(=C(c2ccccc2)c2ccccc2)CC1 [Series 11e, Isobutyl 3-[4-(diphenylmethylidene)piperidin-1-yl]propanoate] |  | 8.3 | 6 | 19.1 | 49.6 | 59.6 | 80 | 718 | 279 |  |
| O=C(CCN1CCC(=C(c2ccccc2)c2ccccc2)CC1)OC1CCCC1.O=C(O)C(=O)O [Series 11f, Cyclopentyl 3-[4-(diphenylmethylidene)piperidin-1-yl]propanoate, oxalic acid salt] |  |  |  |  |  |  |  | 1070 | 416 | REM sleep inhibition (Male Wistar rats; [4]): did not, however, produce; Rebound Insomnia (Male Wistar rats; [4]): did not, however, produce; time post-treatment for which total sleep time was increased (Male Wistar rats; [5]): 3 h; total sleep time (Male Wistar rats; [5]): significantly increased; cumulative effect on total sleep time (TST) during the initial 5 hours post-treatment, relative to baseline (Male Wistar rats; 30 mg/kg versus Zolpidem 10 mg/kg): induced more TST than Zolpidem; sleep continuity, as assessed by sleep bout length (Male Wistar rats; 10 and 30 mg/kg, intraperitoneal, relative to vehicle control): increased sleep continuity; soporific effects (Male Wistar rats; administered at CT-18, intraperitoneal bolus): robust soporific effects; locomotor activity (Male Wistar rats; intraperitoneal, CT-18): reduction; sleep inducing effects compared to therapeutic doses of Ambien (Zolpidem) (Male Wistar rats; intraperitoneal, CT-18): equal or better; increase of sleep time and sleep continuity (sleep bout lengths): dependence on dose (Male Wistar rats; laboratory rats, 10 and 30 mg/kg): dose-dependent |
| O=C(CCN1CCC(=C(c2ccccc2)c2ccccc2)CC1)O[C@H]1CCOC1 [Series 11g] |  |  |  |  |  |  |  | 196 | 86.1 | difference in binding affinity towards the H1 receptor between the enantiomeric compounds (Histamine, H1): do not result in a substantial difference; IC50 (M1 muscarinic receptor): 4680 nM; Ki (M1 muscarinic receptor): 360 nM; IC50 (M2 muscarinic receptor): 5700 nM; Ki (M2 muscarinic receptor): 2080 nM; IC50 (M3 muscarinic receptor): 5710 nM; Ki (M3 muscarinic receptor): 1560 nM; difference in binding affinity towards the muscarinic receptors between the enantiomeric compounds (muscarinic receptors): do show a substantial difference |
| O=C(CCN1CCC(=C(c2ccccc2)c2ccccc2)CC1)OC1CCOC1 (stereo not shown) [Series 11h] |  |  |  |  |  |  |  | 201 | 88.3 | difference in binding affinity towards the H1 receptor between the enantiomeric compounds (Histamine, H1): do not result in a substantial difference; difference in binding affinity towards the muscarinic receptors between the enantiomeric compounds (muscarinic receptors): do show a substantial difference |
| O=C(CCN1CCC(=C(c2ccccc2)c2ccccc2)CC1)OC1CCOCC1 [Series 11i] |  |  |  |  |  |  |  | 200 | 87.8 |  |
| Cc1ccc(/C(=C\CN2CCCC2)c2cccc(C(=O)O)n2)cc1 [Series 16a] | 43.9 | 5.4 | 5 | 11.8 | 20.7 | 57.9 | 180 |  |  |  |
| Cl.O=C(O)CCCN1CCC(OC(c2ccccc2)c2ccccc2)CC1 [Series 53a] | 16.1 | 4.3 | 4 | 9.1 | 17.4 | 49.2 | 30 |  |  |  |
| O=C(O)CCCN1CCC(=C2c3ccccc3COc3ccccc32)CC1 [Series 73a] | 42.8 | 14.5 |  | 27.6 | 47.3 | 62.2 | 45 |  |  |  |
| CC(C)(CN1CCC(=C2c3ccccc3COc3ccccc32)CC1)C(=O)O [Series 74a] | 109 | 9.9 | 5 to 6 | 22.3 | 43.4 | 64.4 | 70 to 80 |  |  |  |
| CC(C)(CCN1CCC(=C2c3ccccc3COc3ccccc32)CC1)C(=O)O [Series 75a] | 47.9 | 6.8 | 4 | 13.6 | 33.9 | 58.8 | 70 to 85 |  |  | Average Bout-Length (Male Wistar rats; 45 mg/kg PO, at CT-18): 10.8 min; Duration (Male Wistar rats; 45 mg/kg PO, at CT-18): 5 h; Maximum Bout Length (Male Wistar rats; 45 mg/kg PO, at CT-18): 19.4 min; NREM Accum. (Male Wistar rats; 45 mg/kg PO, at CT-18): 33.9 min; NREM Peak (Male Wistar rats; 45 mg/kg PO, at CT-18): 58.2 %/hr; Onset (Male Wistar rats; 45 mg/kg PO, at CT-18): 70 to 85 min |
| Nc1ncnc2c1ncn2[C@@H]1O[C@H](CO)[C@@H](O)[C@H]1O [adenosine] |  |  |  |  |  |  |  |  |  | half-life [2]: < 1 s |
| CC(C)OC(=O)CN1CCC(=C2c3ccccc3COc3ccccc32)CC1 [dox7d-oxalate] | 198 | 12.9 | 5 | 25.0 | 54.1 | 76.9 | 85 |  |  |  |
